Values joined by “and” are separate entries in the source; they are usually repeats but may differ in a detail not shown here. Equal values may be shown once.
Legend:
OX2 = target: T1, OX2 (Homo sapiens, UniProt O43614); assay: Orexin receptor cell-based functional assay, [Ca2+]i by FLIPR, CHO-OX2 cells; settings: FLIPR calcium, antagonism of EC90 of [OX]
T1 construct: expressed in transfected cells; host or cells: CHO (CHO-OX2)
T1 sequence (O43614 1-444): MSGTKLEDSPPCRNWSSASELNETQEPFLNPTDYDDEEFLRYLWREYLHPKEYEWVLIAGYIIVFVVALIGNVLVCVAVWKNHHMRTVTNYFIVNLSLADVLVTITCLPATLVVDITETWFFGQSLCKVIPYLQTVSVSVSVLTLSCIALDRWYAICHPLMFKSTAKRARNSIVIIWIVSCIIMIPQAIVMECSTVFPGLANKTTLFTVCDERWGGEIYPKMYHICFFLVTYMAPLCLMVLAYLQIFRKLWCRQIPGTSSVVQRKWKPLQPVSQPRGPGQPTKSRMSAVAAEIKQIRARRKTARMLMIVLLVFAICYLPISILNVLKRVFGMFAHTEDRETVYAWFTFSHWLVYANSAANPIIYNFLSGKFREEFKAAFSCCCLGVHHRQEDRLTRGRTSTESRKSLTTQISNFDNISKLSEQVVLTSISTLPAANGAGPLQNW
Procedure: (§1) Measurement of [Ca^2+]i using a FLIPR: CHO-OX1 or CHO-OX2 cells were seeded into black-walled clear-base 384-well plates (Corning, catalog #3712) at a density of 20,000 cells per well in F12-K medium supplemented with 10% FBS and then incubated in a 5% CO2, 37° C. incubator overnight to reach 90% confluency. The cells were incubated with equal volume of calcium6 loading buffer (Molecular Devices, Inc.) containing 2.5 mM probenecid at 37° C. for 2 h, followed by test compounds (dose-range 0.1 nM-10 μM) for another 30 min. The plates were then placed into a FLIPR (Molecular Devices, Inc.) to monitor fluorescence (λ excitation 488 nm, λ emission 540 nm) before and after the addition of EC90 of [OX]. Results for exemplary compounds of Formulae (I), (Ia), (Ib), (II), (IIa), (III), (IIIa), (IV), (IVa), (V), or (Va) are shown in Table 3.

OX1 = target: T2, OX1 (Homo sapiens, UniProt O43613); assay: Orexin receptor cell-based functional assay, [Ca2+]i by FLIPR, CHO-OX1 cells; settings: FLIPR calcium, antagonism of EC90 of [OX], read-out: OXI, IC50
T2 construct: expressed in transfected cells; host or cells: CHO (CHO-OX1)
T2 sequence (O43613 1-425): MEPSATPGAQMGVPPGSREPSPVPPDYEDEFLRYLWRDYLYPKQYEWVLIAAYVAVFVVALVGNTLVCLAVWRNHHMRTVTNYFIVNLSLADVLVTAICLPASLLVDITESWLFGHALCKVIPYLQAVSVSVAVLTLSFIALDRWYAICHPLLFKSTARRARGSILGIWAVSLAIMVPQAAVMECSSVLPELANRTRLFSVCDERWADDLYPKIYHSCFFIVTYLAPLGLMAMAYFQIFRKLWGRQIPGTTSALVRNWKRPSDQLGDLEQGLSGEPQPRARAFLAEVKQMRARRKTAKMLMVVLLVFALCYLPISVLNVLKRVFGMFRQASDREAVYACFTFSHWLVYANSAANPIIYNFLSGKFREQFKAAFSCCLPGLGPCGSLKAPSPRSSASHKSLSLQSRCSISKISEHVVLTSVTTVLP
Procedure: as §1, with “[OX].” for “[OX]. Results for exemplary compounds of Formulae (I), (Ia), (Ib), (II), (IIa), (III), (IIIa), (IV), (IVa), (V), or (Va) are shown in Table 3.”

Row | SMILES | IC50 (OX2) | IC50 (OX1)
1 | C[C@@H]1CC(F)(F)CN(C(=O)c2cc(F)ccc2-n2nccn2)[C@@H]1CNc1ncc(C(F)(F)F)cn1 [Compound 1, ((2S,3R)-5,5-difluoro-3-methyl-2-(((5-(trifluoromethyl)pyrimidin-2-yl)amino)methyl)piperidin-1-yl)(5-fluoro-2-(2H-1,2,3-triazol-2-yl)phenyl)methanone] | > 5000 nM | 192 nM
2 | C[C@@H]1CC(F)(F)CN(C(=O)c2cc(Cl)ccc2-n2ncnn2)[C@@H]1CNc1ncc(C(F)(F)F)cn1 [Compound 4] | > 5000 nM | 81 nM
3 | Cc1ccc(-n2nccn2)c(C(=O)N2CC(F)(F)C[C@@H](C)[C@H]2CNc2ncc(C(F)(F)F)cn2)c1 [Compound 5] | > 5000 nM | 10 nM
4 | Cc1ccc(-n2nccn2)c(C(=O)N2CC(F)(F)C[C@@H](C)[C@H]2CNc2ncc(Cl)cn2)c1 [Compound 6] | > 5000 nM | 8 nM
5 | Cc1ccc(-n2ncc(C)n2)c(C(=O)N2CC(F)(F)C[C@@H](C)[C@H]2CNc2ncc(C(F)(F)F)cn2)c1 [Compound 7] | > 5000 nM | 7 nM
6 | Cc1ccc(-c2nnn(C)n2)c(C(=O)N2CC(F)(F)C[C@@H](C)[C@H]2CNc2ncc(C(F)(F)F)cn2)c1 [Compound 8] | > 5000 nM | 8 nM
7 | Cc1ccc(-c2nnn(C)n2)c(C(=O)N2CC(F)(F)C[C@@H](C)[C@H]2CNc2ncc(Cl)cn2)c1 [Compound 9] | > 5000 nM | 6 nM
8 | C[C@@H]1CC(F)(F)CN(C(=O)c2cc(Cl)ccc2-n2nccn2)[C@@H]1CNc1ncc(C(F)(F)F)cn1 [Compound 10] | > 5000 nM | 7 nM
9 | C[C@@H]1CC(F)(F)CN(C(=O)c2cc(Cl)ccc2-n2nccn2)[C@@H]1CNc1ncc(Cl)cn1 [Compound 11] | > 5000 nM | 8 nM
10 | Cc1ccc(-n2nccn2)c(C(=O)N2CC(F)(F)C[C@@H](C)[C@H]2CNc2ncc(C(F)(F)F)cn2)n1 [Compound 12] | > 5000 nM | 15 nM
11 | Cc1ccc(-n2nccn2)c(C(=O)N2CC(F)(F)C[C@@H](C)[C@H]2CNc2ncc(Cl)cn2)n1 [Compound 13] | > 5000 nM | 15 nM
12 | C[C@@H]1CC(F)(F)CN(C(=O)c2cc(C#N)ccc2-n2nccn2)[C@@H]1CNc1ncc(C(F)(F)F)cn1 [Compound 14] | > 5000 nM | 52 nM
13 | C[C@@H]1CC(F)(F)CN(C(=O)c2cc(C#N)ccc2-n2nccn2)[C@@H]1CNc1ncc(Cl)cn1 [Compound 15] | > 5000 nM | 46 nM
14 | Cc1ccc(-c2ccccn2)c(C(=O)N2CC(F)(F)C[C@@H](C)[C@H]2CNc2ncc(C(F)(F)F)cn2)n1 [Compound 16, ((2S,3R)-5,5-difluoro-3-methyl-2-(((5-(trifluoromethyl)pyrimidin-2-yl)amino)methyl)piperidin-1-yl)(6′-methyl-[2,3′-bipyridin]-2′-yl)methanone] | > 5000 nM | 60 nM
15 | Cc1ccc(-c2ncccn2)c(C(=O)N2CC(F)(F)C[C@@H](C)[C@H]2CNc2ncc(C(F)(F)F)cn2)n1 [Compound 17, ((2S,3R)-5,5-difluoro-3-methyl-2-(((5-(trifluoromethyl)pyrimidin-2-yl)amino)methyl)piperidin-1-yl)(6-methyl-3-(pyrimidin-2-yl)pyridin-2-yl)methanone] | > 5000 nM | 8 nM
16 | Cc1ccc(-c2ncccn2)c(C(=O)N2CC(F)(F)C[C@@H](C)[C@H]2CNc2ncc(Cl)cn2)n1 [Compound 18, ((2S,3R)-2-(((5-chloropyrimidin-2-yl)amino)methyl)-5,5-difluoro-3-methylpiperidin-1-yl)(6-methyl-3-(pyrimidin-2-yl)pyridin-2-yl)methanone] | > 5000 nM | 18 nM
17 | Cc1noc(-c2ccc(Cl)cc2C(=O)N2CC(F)(F)C[C@@H](C)[C@H]2CNc2ncc(C(F)(F)F)cn2)n1 [Compound 19] | > 5000 nM | 10 nM
18 | CCc1cnc(NC[C@@H]2[C@H](C)CC(F)(F)CN2C(=O)c2nn(C)cc2-c2ccccc2)nc1 [Compound 20] | > 5000 nM | 87 nM
19 | C[C@@H]1CC(F)(F)CN(C(=O)c2nn(C)cc2-c2ccccc2)[C@@H]1CNc1ncc(C(F)(F)F)cn1 [Compound 21] | > 5000 nM | 2 nM

Row | SMILES | IC50 (OX2) | IC50 (OX1)
20 | C[C@@H]1CC(F)(F)CN(C(=O)c2nn(C)cc2-c2ccccc2)[C@@H]1CNc1ncc(Cl)cn1 [Compound 22] | > 5000 nM | 7 nM
21 | C[C@@H]1CC(F)(F)CN(C(=O)c2nn(C)cc2-c2ccccc2F)[C@@H]1CNc1ncc(C(F)(F)F)cn1 [Compound 23] | > 5000 nM | –
22 | Cc1ccccc1-c1cn(C)nc1C(=O)N1CC(F)(F)C[C@@H](C)[C@H]1CNc1ncc(C(F)(F)F)cn1 [Compound 24] | > 5000 nM | 385 nM
23 | C[C@@H]1CC(F)(F)CN(C(=O)c2nn(C)cc2-c2cccc(F)c2)[C@@H]1CNc1ncc(C(F)(F)F)cn1 [Compound 25] | > 5000 nM | 4 nM
24 | Cc1cccc(-c2cn(C)nc2C(=O)N2CC(F)(F)C[C@@H](C)[C@H]2CNc2ncc(C(F)(F)F)cn2)c1 [Compound 26] | > 5000 nM | 4 nM
25 | COc1cccc(-c2cn(C)nc2C(=O)N2CC(F)(F)C[C@@H](C)[C@H]2CNc2ncc(C(F)(F)F)cn2)c1 [Compound 29] | > 5000 nM | 4 nM
26 | C[C@@H]1CC(F)(F)CN(C(=O)c2nn(C)cc2-c2ccc(F)cc2)[C@@H]1CNc1ncc(C(F)(F)F)cn1 [Compound 30] | > 5000 nM | –
27 | C[C@@H]1CC(F)(F)CN(C(=O)c2nn(C)cc2-c2ccc(F)cc2)[C@@H]1CNc1ncc(Cl)cn1 [Compound 31] | > 5000 nM | 4 nM
28 | Cc1ccc(-c2cn(C)nc2C(=O)N2CC(F)(F)C[C@@H](C)[C@H]2CNc2ncc(C(F)(F)F)cn2)cc1 [Compound 32] | > 5000 nM | 12 nM and 6 nM
29 | Cc1cccc(-c2sc(C)nc2C(=O)N2CC(F)(F)C[C@@H](C)[C@H]2CNc2ncc(C(F)(F)F)cn2)c1 [Compound 63] | > 5000 nM | –
30 | Cc1nc(C(=O)N2CC(F)(F)C[C@@H](C)[C@H]2CNc2cnc(C(F)(F)F)cn2)c(-c2ccc(F)cc2)s1 [Compound 137] | – | 5 nM
31 | COc1ccc(-c2sc(C)nc2C(=O)N2CC(F)(F)C[C@@H](C)[C@H]2CNc2cnc(C(F)(F)F)cn2)cc1 [Compound 141] | – | 6 nM
32 | Cc1nc(C(=O)N2CC(F)(F)C[C@@H](C)[C@H]2CNc2cnc(C(F)(F)F)cn2)c(-c2cc(F)ccn2)s1 [Compound 150] | > 5000 nM | –
33 | C[C@@H]1CC(F)(F)CN(C(=O)c2cc(Cl)ccc2-c2nnn(C)n2)[C@@H]1CNc1ccc(C(F)(F)F)cn1 [Compound 182] | – | 17 nM
34 | Cc1ccc(-c2sc(C)nc2C(=O)N2CC(F)(F)C[C@@H](C)[C@H]2CNc2ccc(C(F)(F)F)cn2)nc1 [Compound 197] | > 5000 nM | –
35 | Cc1ccc(-c2cn(C)nc2C(=O)N2CC(F)(F)C[C@@H](C)[C@H]2COc2ccc(C(F)(F)F)cn2)nc1 [Compound 206, ((2S,3R)-5,5-difluoro-3-methyl-2-(((5-(trifluoromethyl)pyridin-2-yl)oxy)methyl)piperidin-1-yl)(1-methyl-4-(5-methylpyridin-2-yl)-1H-pyrazol-3-yl)methanone] | – | 22 nM
36 | C[C@@H]1CC(F)(F)CN(C(=O)c2nn(C)cc2-c2ncc(F)cn2)[C@@H]1COc1cnc(C(F)(F)F)cn1 [Compound 244] | > 5000 nM | –
37 | C[C@@H]1CC(F)(F)CN(C(=O)c2nn(C)cc2-c2ncc(F)cn2)[C@@H]1COc1ncc(C(F)(F)F)cc1F [Compound 245] | > 5000 nM | –
